Among the data in BindingDB's records for doi:10.1021/cc9001026 (Bristol-Myers Squibb, 2010) are IC50 values, retold here.

Broadly, the IC50 is the concentration needed to halve the response being measured. Low values mean inhibition by little substance, high ones a need for much substance.

Several values for one entry are separate records, joined by “and”; a condition that tells them apart may be missing. Identical values can stand only once.

The test has as its target Gag-Pol polyprotein (Human immunodeficiency virus type 1 group M subtype B (isolate HXB2), UniProt P04585). Briefly: Inhibition Assay. The source says: Inhibition assay using HIV-1 integrase.
Turning to `O=C(NCc1ccc(Cl)c(Cl)c1)C1C(=O)C(=O)N(CC2CC2)C1c1cccc2c1OCO2` (centres undefined) [Integrase inhibitor, 2{1,1,1}], the IC50 is 50 nM and 39 nM.

On to `COc1ccc(CN)cc1`, for which the IC50 was 3920 nM.

As to `CCOc1ccccc1C1C(C(=O)NCc2ccc(Cl)c(Cl)c2)C(=O)C(=O)N1CCCCC(NC(C)=O)C(=O)O` (centres undefined) [Integrase inhibitor, 2{1,2,2}], the IC50 is 57 nM and 26 nM.

`CCOCCN` [Integrase inhibitor, R3{5}] displayed an IC50 of 4130 nM.

`O=Cc1cccc2c1OCO2` [Integrase inhibitor, R2{1}] showed an IC50 of 3050 nM. This IC50 and that of the compound before are within 1.5-fold of each other.

For the compound `NCc1cc(Cl)cc(Cl)c1` [Integrase inhibitor, R1{4}], the half-maximal inhibitory concentration (IC50) turned out to be 2470 nM.

`NCC1CC1` [Integrase inhibitor, R3{1}] came in with an IC50 of 3640 nM.

As for `CCOCCCN` [Integrase inhibitor, R3{4}], the half-inhibitory concentration (IC50) is 2110 nM.

For the compound `O=Cc1ccccc1C(F)(F)F` [Integrase inhibitor, R2{5}], 7860 nM corresponded to half-maximal inhibition (IC50).

In turn, `NCc1ccc(F)cc1` [Integrase inhibitor, R1{2}] showed an IC50 of 4050 nM.

`CN` [Integrase inhibitor, R3{3}] displayed a concentration for half-maximal inhibition (IC50) of 2700 nM.

`O=Cc1ccccc1OCc1ccccc1` [Integrase inhibitor, R2{4}] had a concentration for half-maximal inhibition (IC50) of 1750 nM.

On to `CCOCCCN1C(=O)C(=O)C(C(=O)NCc2ccc(Cl)c(Cl)c2)C1c1ccccc1Oc1ccccc1` (centres undefined) [Integrase inhibitor, 2{1,4,4}], for which the IC50 was 90 nM and 80 nM.

`NCc1ccc(Cl)c(Cl)c1` [Integrase inhibitor, R1{1}] returned a half-inhibitory concentration (IC50) of 1340 nM.

In turn, `CCOc1ccccc1C=O` [Integrase inhibitor, R2{2}] came in with an IC50 of 1020 nM. The IC50 values of the last two compounds are within 1.5-fold of each other.

For `CC(=O)N[C@H](CCCCN)C(=O)O` [Integrase inhibitor, R3{2}], the half-maximal inhibitory concentration (IC50) came to 1840 nM.

The compound `O=Cc1ccccc1OCC(=O)O` [Integrase inhibitor, R2{3}] yielded an IC50 of 2030 nM.

In the case of `COc1ccc(CNC(=O)C2C(=O)C(=O)N(CC3CC3)C2c2ccccc2C(F)(F)F)cc1` (centres undefined) [Integrase inhibitor, 2{3,5,1}], the IC50 was 12000 nM and 10300 nM.

Take `CC(=O)NC(CCCCN1C(=O)C(=O)C(C(=O)NCc2ccc(Cl)c(Cl)c2)C1c1cccc2c1OCO2)C(=O)O` (centres undefined) [Integrase inhibitor, 2{1,1,2}]: the 50% inhibitory concentration (IC50) is 67 nM and 29 nM.
